In this test the target is 5-hydroxytryptamine receptor 7 (Rattus norvegicus, UniProt P32305). The experiment in a line: Biological Assay: Compound affinity for the rat 5-HT7 receptor subtype was evaluated by competitive radioligand binding assay using 5-carboxamido[H3]typtamine ([3H]5-CT)(Amersham Biosciences) detection.

Ki data for one compound are collected here from ChEMBL document CHEMBL3639186, “Modulators of serotonin receptor” (2013).

SMILES strings stand for the structures.

5-hydroxytryptamine receptor 7, sequence (P32305 whole entry): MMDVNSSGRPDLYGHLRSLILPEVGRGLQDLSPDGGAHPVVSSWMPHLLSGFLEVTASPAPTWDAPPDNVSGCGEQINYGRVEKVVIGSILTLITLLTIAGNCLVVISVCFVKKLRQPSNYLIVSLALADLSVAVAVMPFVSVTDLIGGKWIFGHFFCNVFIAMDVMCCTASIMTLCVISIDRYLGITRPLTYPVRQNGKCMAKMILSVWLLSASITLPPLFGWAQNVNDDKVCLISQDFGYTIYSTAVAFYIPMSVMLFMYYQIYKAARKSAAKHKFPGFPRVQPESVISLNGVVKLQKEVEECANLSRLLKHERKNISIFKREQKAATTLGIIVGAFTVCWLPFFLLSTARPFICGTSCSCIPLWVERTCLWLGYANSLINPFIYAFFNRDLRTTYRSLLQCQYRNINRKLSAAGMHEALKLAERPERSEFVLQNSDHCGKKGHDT

The compound `Cc1cc(C#N)c(OC2CNC2)cc1-c1ccccc1` gave a Ki of at least 10 µM.

As usually defined, the Ki is a measure of affinity in units of concentration, obtained from inhibition or displacement. Low values mean tighter binding, high ones weaker binding.
